According to US4849425A, “Readily absorbable pharmaceutical composition” (Ishihara Sangyo Kaisha Ltd., priority 1985, dated 1989):

Experiments:
[1] = Absorbability through the gut, oral suspension in cyclodextrin solutions, plasma concentration in rats (Test Example 3); format: in vivo, Wistar male rats; details: 40% dimethyl β-type cyclodextrin vs control (0.5% sodium carboxymethyl cellulose), 20 mg/kg, rat
Procedure: (§1) 20 mg of Compound No. 3 was taken into a mortar, and 5 ml of an aqueous solution containing 1.7% of β-type cyclodextrin or 2% or 40% of dimethyl β-type cyclodextrin was added under stirring to obtain a suspension of Compound No. 3. The suspension was orally administered by an oral sonde to a group of three Wistar male rats (body weight: 200-250g). The dose of Compound No. 3 was 20 mg/kg rat body weight. Further, Compound No. 3 was likewise suspended in an aqueous solution containing 0.5% of sodium salt of carboxymethyl cellulose, and the suspension was used as the control ( in FIG. 3). After the administration, the blood was periodically sampled, and the plasma was separated. After the removal of protein by acetonitrile, Compound No. 3 in the plasma was quantitatively analyzed by a high speed liquid chromatography as shown in Test Example 1.

[2] = Absorbability through the gut, oral, aqueous and non-aqueous dispersing solvents, plasma concentration in rats (Test Example 5); format: in vivo, Wistar male rats; details: rat; for absorption: oral; for concentration at 1 h / concentration at 3 h / concentration at 5 h / concentration at 24 h: plasma, po, 20 mg/kg
Procedure: as §1
The changes with time of the concentration of Compound No. 3 in the plasma after the oral administration were studied in the same manner as in Test Example 3 by using an aqueous solution of 10% (weight/volume) hydroxypropyl cellulose (HPC-L, manufactured by Nippon Soda Co., Ltd.), 2.5% (weight/volume) methyl cellulose (Metrose SM 15,manufactured by Shin-Etsu Chemical Co., Ltd.), 10% (weight/volume) hydroxypropylmethyl cellulose (Metrose TC5R, manufactured by Shin-Etsu Chemical Co., Ltd.), 2.5% (weight/volume) sodium salt of carboxymethyl cellulose (manufactured by Wako Junyaku K.K.), 10% (weight/volume) sucrose fatty acid ester (P1570, manufactured by Hishito K.K.) or 10% (weight/volume) pluronic F 68 (manufactured by Asahi Denka Kogyo K.K.), as an aqueous dispersing solvent for Compound No. 3, and medium-chain length fatty acid triglyceride (ODO, manufactured by Nisshin Seiyu K.K.), ODO containing 5% (weight/volume) sucrose fatty acid ester (S-370F, manufactured by Hishito K.K.), or a refined soybean oil (The Green Cross Corporation) or refined sesame oil (Takemoto Yushi K.K.) containing 5% (weight/volume) of S-370F, as a non-aqueous dispersing solvent, and an aqueous solution of 50% (weight/volume) dimethyl β-type cyclodextrin and an aqueous solution of 0.5% (weight/volume) sodium carboxymethyl cellulose, as the control.

[3] = Rectal suppository, plasma concentration in rats (Test Example 6); format: in vivo, Wistar male rat; details: rat; for Concentration in the plasma / concentration at 0.5 h / concentration at 1 h / concentration at 2 h / concentration at 4 h: rectal; for Concentration in the plasma: 0; for concentration at 0.5 h / concentration at 1 h / concentration at 2 h / concentration at 4 h: plasma
Procedure: A Witepsol W-35 suppository (weight: about 45 mg) comprising 1.8 mg of Compound No. 3 and 12.5% (weight/volume) of dimethyl β-type cyclodextrin, was administered to the rectum of each Wistar male rat having a body weight of about 90 g (a group of three rats). Then, the blood was periodically sampled from the jugular vein, and the concentration of Compound No. 3 in the plasma was measured. To a control group, a suppository contained no cyclodextrin was administered. It is evident that by the addition of dimethyl β-type cyclodextrin, the absorbability of Compound No. 3 increased.

L-1210 leukemia cells = experiment: Antitumour activity against intraperitoneally inoculated L-1210 leukemia, oral administration (Test Example 9); format: in vivo, BDF1 mice
Source text: The pharmacological activities of the pharmaceutical compositions of the present invention were studied.
To BDF1 mice (male, […]), L-1210 leukemia cells were intraperitoneally inoculated in an amount of 1×10^6 cells/mouse. One day later and 4 days later, a test drug was orally administered. […]

[4] = 0.5% (w/v) sodium salt of carboxymethyl cellulose (control), oral 20 mg/kg
[5] = 2.5% (w/v) methyl cellulose, oral 20 mg/kg
[6] = 2.5% (w/v) sodium salt of carboxymethyl cellulose, oral 20 mg/kg
[7] = 5% (w/v) Pluronic F31/ODO, oral 20 mg/kg
[8] = 5% (w/v) sucrose fatty acid ester/ODO, oral 20 mg/kg
[9] = 5% (w/v) sucrose fatty acid ester/refined sesame oil, oral 20 mg/kg
[10] = 5% (w/v) sucrose fatty acid ester/refined soybean oil, oral 20 mg/kg
[11] = 10% (w/v) Pluronic F68, oral 20 mg/kg
[12] = 10% (w/v) hydroxypropyl cellulose, oral 20 mg/kg
[13] = 10% (w/v) hydroxypropylmethyl cellulose, oral 20 mg/kg
[14] = 10% (w/v) sucrose fatty acid ester, oral 20 mg/kg
[15] = 50% (w/v) dimethyl β-type cyclodextrin, oral 20 mg/kg
[16] = medium-chain length fatty acid triglyceride (ODO), oral 20 mg/kg
[17] = 1.8 mg, Witepsol W-35 suppository, 12.5% (w/v) dimethyl β-type cyclodextrin
[18] = 1.8 mg, control suppository without cyclodextrin

For `O=C(NC(=O)c1ccccc1[N+](=O)[O-])Nc1ccc(Oc2ncc(Br)cn2)c(Cl)c1` [Compound No. 3, N-(2-nitrobenzoyl)-N'-[4-(5-bromo-2-pyrimidinyloxy)-3-chlorophenyl]urea], the “concentration in the plasma relative to the control” value [1] was “about 3.5 times”, the absorption ([2]; 50% (w/v) dimethyl β-type cyclodextrin, among the aqueous dispersing solvents) was “highest absorption” and the absorption ([2]; ODO containing 5% (w/v) Pluronic F32) was “high absorption”. It also gave a concentration at 1 h [2, 4] of 30 ng/mL, a concentration at 3 h [2, 4] of 100 ng/mL and a concentration at 5 h [2, 4] of 150 ng/mL. For the same molecule, the concentration at 24 h [2, 4] was 10 ng/mL, the concentration at 1 h [2, 5] was 60 ng/mL and the concentration at 3 h [2, 5] was 110 ng/mL. It also gave a concentration at 5 h [2, 5] of 110 ng/mL, a concentration at 24 h [2, 5] of 30 ng/mL and a concentration at 1 h [2, 6] of 40 ng/mL. The concentration at 3 h [2, 6] was 110 ng/mL, the concentration at 5 h [2, 6] was 90 ng/mL and the concentration at 24 h [2, 6] was 90 ng/mL. For the same molecule, the concentration at 1 h [2, 7] was 100 ng/mL, the concentration at 3 h [2, 7] was 200 ng/mL and the concentration at 5 h [2, 7] was 220 ng/mL. It also gave a concentration at 24 h [2, 7] of 470 ng/mL, a concentration at 1 h [2, 8] of 60 ng/mL and a concentration at 3 h [2, 8] of 180 ng/mL. For the same molecule, the concentration at 5 h [2, 8] was 200 ng/mL, the concentration at 24 h [2, 8] was 220 ng/mL and the concentration at 1 h [2, 9] was 140 ng/mL. For the same molecule, the concentration at 3 h [2, 9] was 490 ng/mL, the concentration at 5 h [2, 9] was 570 ng/mL and the concentration at 24 h [2, 9] was 370 ng/mL. The concentration at 1 h [2, 10] was 120 ng/mL, the concentration at 3 h [2, 10] was 500 ng/mL and the concentration at 5 h [2, 10] was 550 ng/mL. The concentration at 24 h [2, 10] was 390 ng/mL, the concentration at 1 h [2, 11] was 110 ng/mL and the concentration at 3 h [2, 11] was 190 ng/mL. The concentration at 5 h [2, 11] was 230 ng/mL, the concentration at 24 h [2, 11] was 120 ng/mL and the concentration at 1 h [2, 12] was 50 ng/mL. The concentration at 3 h [2, 12] was 120 ng/mL, the concentration at 5 h [2, 12] was 110 ng/mL and the concentration at 24 h [2, 12] was 40 ng/mL. The concentration at 1 h [2, 13] was 140 ng/mL, the concentration at 3 h [2, 13] was 310 ng/mL and the concentration at 5 h [2, 13] was 280 ng/mL. The concentration at 24 h [2, 13] was 100 ng/mL, the concentration at 1 h [2, 14] was 40 ng/mL and the concentration at 3 h [2, 14] was 180 ng/mL. The concentration at 5 h [2, 14] was 180 ng/mL, the concentration at 24 h [2, 14] was 240 ng/mL and the concentration at 1 h [2, 15] was 280 ng/mL. The concentration at 3 h [2, 15] was 580 ng/mL, the concentration at 5 h [2, 15] was 490 ng/mL and the concentration at 24 h [2, 15] was 360 ng/mL. The concentration at 1 h [2, 16] was 120 ng/mL, the concentration at 3 h [2, 16] was 170 ng/mL and the concentration at 5 h [2, 16] was 210 ng/mL. The concentration at 24 h [2, 16] was 240 ng/mL, the absorption ([2]; refined soybean oil or refined sesame oil containing 5% (w/v) sucrose fatty acid ester, among the non-aqueous dispersing solvents) was “high absorption almost equal to dimethyl β-type cyclodextrin” and the “Concentration in the plasma” value ([3]; Witepsol W-35 suppository, 1.8 mg, 12.5% (w/v) dimethyl β-type cyclodextrin) was 0 ng/mL. For the same molecule, the absorbability ([3]; addition of dimethyl β-type cyclodextrin, rectal suppository) was “increased”, the “Concentration in the plasma” value ([3]; control suppository without cyclodextrin) was 0 ng/mL and the concentration at 0.5 h [3, 17] was 320 ng/mL. For the same molecule, the concentration at 1 h [3, 17] was 480 ng/mL, the concentration at 2 h [3, 17] was 940 ng/mL and the concentration at 4 h [3, 17] was 990 ng/mL. For the same molecule, the concentration at 0.5 h [3, 18] was 40 ng/mL, the concentration at 1 h [3, 18] was 80 ng/mL and the concentration at 2 h [3, 18] was 110 ng/mL. The concentration at 4 h [3, 18] was 90 ng/mL, the antitumour activities (L-1210 leukemia cells; only when administered together with the substance specified in the invention) was “distinctly observed” and the T/C (L-1210 leukemia cells; polyethylene glycol 400 + substrate + Compound No. 3, 6.25 mg/kg) was 120%. For the same molecule, the T/C (L-1210 leukemia cells; polyethylene glycol 400 + substrate + Compound No. 3, 12.5 mg/kg) was 134%, the T/C (L-1210 leukemia cells; polyethylene glycol 400 + substrate + Compound No. 3, 25 mg/kg) was 183% and the T/C (L-1210 leukemia cells; polyethylene glycol 400 + substrate + Compound No. 3, 50 mg/kg) was 95%. The antitumour activities (L-1210 leukemia cells; polyethylene glycol 400 absent) was “no antitumour activities were observed”, the T/C (L-1210 leukemia cells; substrate + Compound No. 3 (no polyethylene glycol 400), 6.25 mg/kg) was 102% and the T/C (L-1210 leukemia cells; substrate + Compound No. 3 (no polyethylene glycol 400), 12.5 mg/kg) was 102%. The T/C (L-1210 leukemia cells; substrate + Compound No. 3 (no polyethylene glycol 400), 25 mg/kg) was 101% and the T/C (L-1210 leukemia cells; substrate + Compound No. 3 (no polyethylene glycol 400), 50 mg/kg) was 103%.
